Experimental data as given in PubChem BioAssay (NCI).
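Five concentrations, 48 hours, 96-well plates. GI50 is the concentration that inhibits growth by half. TGI is the concentration that stops growth completely.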

Key:
Assay in all cases: growth of human tumour cells (NCI), 48 h
[1] = test system: K-562 leukemia
[2] = test system: MCF7 breast
[3] = test system: MDA-MB-231 breast
[4] = test system: NCI-H460 lung
[5] = test system: SF-295 CNS
[6] = test system: SN12C renal
[7] = test system: T-47D breast
[8] = test system: DMS 114 small cell lung
[9] = test system: HOP-18 NSCLC
[10] = test system: KM20L2 colon

Row | Structure (SMILES) | GI50 [1] [µM] | TGI [1] [µM] | GI50 [2] [µM] | TGI [2] [µM] | GI50 [3] [µM] | TGI [3] [µM] | GI50 [4] [µM] | TGI [4] [µM] | GI50 [5] [µM] | TGI [5] [µM] | GI50 [6] [µM] | TGI [6] [µM] | GI50 [7] [µM] | TGI [7] [µM] | TGI [8] [µM] | TGI [9] [µM] | TGI [10] [µM]
1 | COc1cc(Oc2cnc3cc(N)cc(N)c3n2)cc(OC)c1OC | 38.1 | > 100 | 35.4 | > 100 | 29.4 | 95.8 | 52 | > 100 | 74.4 | > 100 | 71.2 | > 100 | 33.5 | > 100 |  |  | 
2 | CC(=N\O)/C(C)=N/O.CC(=N\O)/C(C)=N/O.[Pd] | > 10 | > 10 | 4.98 | > 10 | 3.3 | 9.03 | 9.28 | > 10 | > 10 | > 10 | 8.65 | > 10 | 6.19 | > 10 |  |  | 
3 | CC(=O)c1c[nH]c2ccc(-c3ccnc(Nc4ccc(NC(=O)c5cccc(F)c5)c(CN5CCOCC5)c4)n3)cc12 | 0.303 | > 100 | 0.149 | 1.7 | 0.177 | 1.3 | 0.176 |  | 0.249 | 1.75 | 0.153 | > 23.3 | 0.223 | 5.45 |  |  | 
4 | O=C(c1ccc(Cl)cc1)N(C(=S)N1CCN(c2ccccc2)CC1)C1CCCCC1 |  | > 100 |  |  |  |  |  | > 100 |  | > 100 |  | > 100 |  |  | > 100 | > 100 | > 100
5 | c1cc(C2O[C@H]3CCCN3[C@@H]2c2ccncc2)ccn1 (stereo partly specified) |  | > 100 |  |  |  |  |  | > 100 |  | > 100 |  | > 100 |  |  | > 100 |  | > 100
6 | NS(=O)(=O)OC[C@H]1O[C@@H](n2cnc3c(N[C@H]4CCc5ccccc54)ncnc32)[C@H](O)[C@@H]1O | 0.0369 | > 100 | 0.0736 | > 100 | 0.47 | 2.92 | 0.408 | 2.11 | 0.387 | 1.94 | 0.231 | 1.3 | 0.156 | 1.41 |  |  | 
7 | CCCCc1c2c(nc3c1CCc1cc(C=O)c(N)nc1-3)/C(=C/c1ccccc1)CCC2 |  | > 100 |  |  |  |  |  | > 100 |  | > 100 |  | > 100 |  |  | > 100 | > 100 | > 100
8 | CC(=O)O/N=C1\C=Cc2c(no[n+]2[O-])C1=O |  | > 100 |  | 45.4 |  | 34.4 |  | > 100 |  | > 100 |  | 32.9 |  | 57.5 |  |  | 
9 | COC(=O)CC[C@@H](NC(=O)C(C)NC(=O)COC1C(O)C(COC(=O)CCCCCCCCCCNC(=O)c2ccc([N+](=O)[O-])c3[nH]c4cc(Br)ccc4c(=O)c23)OC(OCc2ccccc2)C1NC(C)=O)C(N)=O (stereo partly specified) |  | > 100 |  |  |  |  |  | > 100 |  | > 100 |  | > 100 |  |  | > 100 | > 100 | > 100
10 | COC1=CC(=O)c2c(O)c3c(c(O)c2C1=O)CC(C)(O)OC3 (stereo unspecified) |  | > 45.3 |  | 7.29 |  | > 41 |  | 6.48 |  | 13.9 |  | 14.2 |  | 8.38 |  |  | 
11 | O=C(CCCCCCCCC(=O)OCCCn1cc(C(=O)NC(=O)OCc2ccccc2)c(=O)[nH]c1=O)OCCCn1cc(C(=O)NC(=O)OCc2ccccc2)c(=O)[nH]c1=O |  | > 100 |  |  |  |  |  | > 100 |  | > 100 |  | > 100 |  |  |  | > 100 | > 100
12 | CCOc1cccc2cccnc12 |  | > 100 |  |  |  |  |  | > 100 |  | > 100 |  | > 100 |  |  | > 100 | > 100 | > 100
13 | CC1=NN(C(=O)CC(=O)Nc2ccccc2)C(=O)C1N=Nc1ccc(S(N)(=O)=O)cc1 (stereo unspecified) |  | > 100 |  |  |  |  |  | > 100 |  | > 100 |  | > 100 |  |  | > 100 | > 100 | > 100
14 | OCCOCn1nc(-c2ccccc2)nc1-c1cnccn1 |  | > 100 |  | > 100 |  | > 100 |  | > 100 |  | > 100 |  | > 100 |  | > 100 |  |  | 
15 | CCOC(=O)C(=C=Cc1cccs1)C(=O)c1ccccc1 |  | > 100 |  |  |  |  |  | 46 |  | 31.9 |  | 29.3 |  |  |  | 34 | 
16 | COc1ccc(CNCCN2C(=O)c3ccc4c5c(ccc(c35)C2=O)C(=O)N(CCNCc2ccc(OC)cc2)C4=O)cc1 | 0.217 | 0.96 | 0.181 | 0.533 | 0.294 | 1.13 | 0.25 | 0.943 | 0.418 | 1.83 | 0.159 | 0.323 | 0.306 | 1.42 |  |  | 
17 | C=CC[n+]1c(/C=C2\Sc3ccccc3N2C)sc(-c2ccccc2)c1-c1ccccc1 | 0.344 | 10 | 0.286 | 1.77 | 0.287 | 2.99 | 0.284 | 11.4 | 0.276 | 0.903 | 0.298 | 1.47 | 0.242 | 0.782 |  |  | 
18 | CC1CCC(O)/C=C/C(=O)OC(C)C(O)/C=C/C(=O)O1 (stereo unspecified) |  | > 100 |  | > 100 |  | > 100 |  | > 100 |  | > 100 |  | > 100 |  | > 100 |  |  | 
19 | CC(C)OCC(O)COc1cc(=O)oc2ccccc12 (stereo unspecified) |  | > 100 |  | > 100 |  | > 100 |  | > 100 |  | > 100 |  | > 100 |  | > 100 |  |  | 
20 | Cc1cc(C)c2nc(Nc3nc(C)c(C)c(=O)[nH]3)nc(C)c2c1 | 2.53 | 11.1 | 2.14 | 10.7 | 2.99 | 12.7 | 2.99 | 11.1 | 2.29 | 6.44 | 2.27 | 12 | 1.65 | 8.42 |  |  | 
21 | COc1cc(C=C2C(=O)OC(C)(C)OC2=O)cc(OC)c1OC |  | > 100 |  |  |  |  |  | > 100 |  | > 100 |  | > 100 |  |  | > 100 | > 100 | > 100
